Earlier results on 1 compound are cited in US20230089681A1, “USE OF A COMBINATION OF SULFICANT COMPOUNDS WITH A LIQUID CARRIER AS A SELF EMULSIFYING DRUG DELIVERY SYSTEM” (priority 2021, published 2023).

Molecules are shown by their SMILES. Like-named read-outs stand apart in the source and are kept apart here.

With `COc1ccc2cc3[n+](cc2c1OC)CCc1cc2c(cc1-3)OCO2` [Berberine], the absorption by setting is: (oral, in capsule form taken with water) 0.306%; (traditional oral administration) 0.36%.
